# Patent US10364222B2, “Cyclic amine derivative and medical use thereof” (Toray Industries, Inc., priority 2016, dated 2019)
# Assays:
# [1] = target: T1, ligand-binding domain of RORγ (RORγ-LBD) (Homo sapiens, UniProt P51449); assay: Inhibitory effect on RORγ-coactivator binding (LanthaScreen TR-FRET RORγ Coactivator Assay); conditions: at 33 μmol/L of the test compound; read-out: RORγ-coactivator binding inhibition rate (%)
# T1 construct: purchased Invitrogen
# T1 sequence (P51449 269-508 limits assumed): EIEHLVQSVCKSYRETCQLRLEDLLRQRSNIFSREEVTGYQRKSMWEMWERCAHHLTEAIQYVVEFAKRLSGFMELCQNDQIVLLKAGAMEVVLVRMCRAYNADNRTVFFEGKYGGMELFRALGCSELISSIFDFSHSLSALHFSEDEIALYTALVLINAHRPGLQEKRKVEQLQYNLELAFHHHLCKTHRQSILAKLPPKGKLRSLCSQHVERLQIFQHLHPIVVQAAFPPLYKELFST
# Procedure, shortened: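 TR-FRET: 4 nmol/L GST-RORγ-LBD with compound (1% DMSO) in Coregulator Buffer D plus 5 mmol/L DTT, then 150 nmol/L fluorescein-TRAP220/DRIP-2 and 32 nmol/L Tb-anti-GST antibody; 16–24 hours at room temperature. 520/495 nm ratio (320 nm excitation), background-corrected against control, gives % inhibition of coactivator binding.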
# [2] = system: IL-17 production in mouse splenocytes; assay: Suppressive effect on IL-17 production by IL-23 stimulation in mouse splenocytes; assay type: cell-based; conditions: Splenocyte, 72 h, at 5 μmol/L of the test compound, 10 ng/mL human IL-23, 3 days, read-out: IL-17 production inhibition rate (%)
# Procedure, shortened: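 Splenocytes from male C57BL/6J mice (3×10^5/well, with 100 U/mL human IL-2) stimulated with 10 ng/mL human IL-23 plus compound (0.1% DMSO) for 3 days at 37 °C. Supernatant IL-17 measured by ELISA; inhibition calculated against unstimulated and IL-23-only wells.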
inhibition at 33 µM [1] [%],Compound,inhibition at 5 µM [2] [%]
91.9,"O=C(Nc1ccc(-c2ccccc2OC(F)(F)F)c(Cl)c1)C1CCCCN1C(=O)C(F)(F)F (centres unmarked) [Example 2, N-(2-chloro-2′-(trifluoromethoxy)-[1,1′-biphenyl]-4-yl)-1-(2,2,2-trifluoroacetyl)piperidine-2-carboxamide]",96.2
104,"Cc1cc(CC(=O)N2CCCCC2C(=O)Nc2ccc(-c3ccccc3OC(F)(F)F)c(Cl)c2)on1 (centres unmarked) [Example 56, 1-(2-(3-methylisoxazol-5-yl)acetyl)-N-(2-chloro-2′-(trifluoromethoxy)-[1,1′-biphenyl]-4-yl)piperidine-2-carboxamide]",107
92.8,"O=C(Nc1ccc(-c2ccccc2OC(F)(F)F)c(Cl)c1)C1CCCCN1C(=O)CCO (centres unmarked) [Example 42, N-(2-chloro-2′-(trifluoromethoxy)-[1,1′-biphenyl]-4-yl)-1-(3-hydroxypropanoyl)piperidine-2-carboxamide]",99.8
99,"COC(=O)CC(=O)N1CCCCC1C(=O)Nc1ccc(-c2ccccc2OC(F)(F)F)c(Cl)c1 (centres unmarked) [Example 43, methyl 3-(2-((2-chloro-2′-(trifluoromethoxy)-[1,1′-biphenyl]-4-yl)carbamoyl)piperidin-1-yl)-3-oxopropanoate]",92.4
95.9,"CN(C)C(=O)N1CCCCC1C(=O)Nc1ccc(-c2ccccc2OC(F)(F)F)c(Cl)c1 (centres unmarked) [Example 18, N^2-(2-chloro-2′-(trifluoromethoxy)-[1,1′-biphenyl]-4-yl)-N^1,N^1-dimethylpiperidine-1,2-dicarboxamide]",90.8
90.3,"COCC(=O)N1CCCCC1C(=O)Nc1ccc(-c2ccccc2OC(F)(F)F)c(Cl)c1 (centres unmarked) [Example 4, N-(2-chloro-2′-(trifluoromethoxy)-[1,1′-biphenyl]-4-yl)-1-(2-methoxyacetyl)piperidine-2-carboxamide]",99.7
101,"CN(CC(=O)N1CCCCC1C(=O)Nc1ccc(-c2ccccc2OC(F)(F)F)c(Cl)c1)S(C)(=O)=O (centres unmarked) [Example 13, N-(2-chloro-2′-(trifluoromethoxy)-[1,1′-biphenyl]-4-yl)-1-(2-(N-methylmethylsulfonamide)acetyl)piperidine-2-carboxamide]",98.2
90.9,"CC(=O)N1CCCCC1C(=O)Nc1ccc(-c2ccccc2OC(F)(F)F)c(Cl)c1 (centres unmarked) [Example 1, 1-acetyl-N-(2-chloro-2′-(trifluoromethoxy)-[1,1′-biphenyl]-4-yl)piperidine-2-carboxamide]",94
96.9,"O=C(Nc1ccc(-c2ccccc2OC(F)(F)F)c(Cl)c1)C1CCCCN1C(=O)CO (centres unmarked) [Example 5, N-(2-chloro-2′-(trifluoromethoxy)-[1,1′-biphenyl]-4-yl)-1-(2-hydroxyacetyl)piperidine-2-carboxamide]",99.5
95.9,"COC(=O)CCCC(=O)N1CCCC[C@@H]1C(=O)Nc1ccc(-c2ccccc2OC(F)(F)F)c(Cl)c1 [Example 69, methyl (R)-5-(2-((2-chloro-2′-(trifluoromethoxy)-[1,1′-biphenyl]-4-yl)carbamoyl)piperidin-1-yl)-5-oxopentanoate]",99.5
99.3,"O=CN1CCCCC1C(=O)Nc1ccc(-c2ccccc2OC(F)(F)F)c(Cl)c1 (centres unmarked) [Example 16, N-(2-chloro-2′-(trifluoromethoxy)-[1,1′-biphenyl]-4-yl)-1-formylpiperidine-2-carboxamide]",98
99.3,"Cn1cc(C(=O)N2CCCCC2C(=O)Nc2ccc(-c3ccccc3OC(F)(F)F)c(Cl)c2)cn1 (centres unmarked) [Example 46, N-(2-chloro-2′-(trifluoromethoxy)-[1,1′-biphenyl]-4-yl)-1-(1-methyl-1H-pyrazole-4-carbonyl)piperidine-2-carboxamide]",99.2
101,"Cn1ccnc1CC(=O)N1CCCCC1C(=O)Nc1ccc(-c2ccccc2OC(F)(F)F)c(Cl)c1 (centres unmarked) [Example 50, N-(2-chloro-2′-(trifluoromethoxy)-[1,1′-biphenyl]-4-yl)-1-(2-(1-methyl-1H-imidazol-2-yl)acetyl)piperidine-2-carboxamide]",94.5
